Data reported in patent US8901315B2, “Thienopyrazole derivative having PDE7 inhibitory activity” (Daiichi Sankyo Company, Limited, priority 2004, dated 2014).
Counter-ions that a name gives are not always drawn. Like-named read-outs stand apart in the source and are kept apart here.

Assays:
[1] = molecular target: PDE 7 (phosphodiesterase VII) (Homo sapiens (Human), UniProt Q13946); assay: PDE 7 inhibiting effect (3H-cAMP hydrolysis, PDE 7 active fraction from MOLT-4 cells); assay type: biochemical; settings: read-out: PDE7 IC50
Procedure: Methods for Evaluating the PDE 7 Inhibiting Effect
The PDE 7 (phosphodiesterase VII) inhibiting effect of the compounds of the present invention was performed by the following method, which was modified assay method described in Biochemical. Pharmacol. 48(6), 1219-1223 (1994). • (1) The active fraction of PDE 7 (phosphodiesterase VII) was obtained. That is, MOLT-4 (obtainable from ATCC as ATCC No. CRL-1582), which was cell line of human acute lymphoblastic lymphoma T cells, was incubated in RPMI1640 culture medium containing 10% fetal bovine serum to obtain 5×10^8 MOLT-4 cells. The cells were collected by centrifugation and suspended with 10 mL of buffer solution A [25 mM of tris-HCl, 5 mM of 2-mercaptoethanol, 2 mM of benzamidine, 2 mM of EDTA, 0.1 mM of 4-(2-aminoethyl)benzenesulfonyl hydrochloride; pH 7.5], then homogenized by Polytron® homogenizer. The homogenate were centrifuged under 25,000×G for 10 minutes at 4° C. The supernatant was separated and thus obtained supernatant was further centrifuged under 100,000×G for 60 minutes at 4° C., and then filtrated with 0.2 μm filter to obtain the soluble fraction. • (2) The obtained soluble fraction was filled in equilibrium HiTrap Q column (5 mL×2) with buffer solution A, and phosphodiesterase fractions were eluted by 300 mL of buffer solution A with linear gradient from 0 to 0.8 M NaCl concentration. 5 mL each of 60 eluents were collected, and each eluents were examined for cyclic AMP metabolic activities of phosphodiesterase. […] After the reaction, suspension of Sephadex®-QAE in 10 mM of HEPES-Na (pH 7.0) was added to the reaction mixture, and the mixture was left at rest for 5 minutes.

[2] = molecular target: PDE 4 (phosphodiesterase IV); assay: PDE 4 inhibiting effect (3H-cAMP hydrolysis, PDE 4 active fraction from Balb/c mouse liver); assay type: biochemical; settings: PDE 4 fraction from Balb/c mice liver, 0.064 μM cAMP, 2 hours at 25° C., read-out: PDE4 IC50
Procedure: Methods for Evaluating the PDE 4 Inhibiting Effect
The PDE 4 (phosphodiesterase IV) inhibiting effect of the compounds of the present invention was performed by the following method, which was modified assay method described in Biochemical. […] That is, the livers obtained from three Balb/c mice (male, 12 weeks: obtainable from CLEA Japan, Inc.) were suspended with 30 mL of buffer solution B [20 mM of bis-tris, 5 mM of 2-mercaptoethanol, 2 mM of benzamidine, 2 mM of EDTA, 0.1 mM of 4-(2-aminoethyl)benzenesulfonyl hydrochloride, 50 mM of sodium acetate; pH 6.5], then homogenized by Polytron® homogenizer. The homogenate were centrifuged under 25,000×G for 10 minutes at 4° C. The supernatant was separated and thus obtained supernatant was further centrifuged under 100,000×G for 60 minutes at 4° C., and then filtrated with 0.2 μm filter to obtain the soluble fraction. • (2) The obtained soluble fraction was filled in equilibrium DEAE sepharose column (1×10 cm) with buffer solution B, and phosphodiesterase fractions were eluted by 120 mL of buffer solution B with linear gradient from 0.05 to 1M sodium acetate concentration. 5 mL each of 24 eluents were collected, and each eluents were examined for cyclic AMP metabolic activities of phosphodiesterase. […] After the reaction, suspension of Sephadex®-QAE in 10 mM of HEPES-Na (pH 7.0) was added to the reaction mixture, and the mixture was left at rest for 5 minutes.

[3] = PDE 7 fraction from MOLT-4 cells, 0.064 μM cAMP, 10 μM rolipram, 2 hours at 25° C.

PDE 7 (phosphodiesterase VII), sequence (Q13946 whole entry): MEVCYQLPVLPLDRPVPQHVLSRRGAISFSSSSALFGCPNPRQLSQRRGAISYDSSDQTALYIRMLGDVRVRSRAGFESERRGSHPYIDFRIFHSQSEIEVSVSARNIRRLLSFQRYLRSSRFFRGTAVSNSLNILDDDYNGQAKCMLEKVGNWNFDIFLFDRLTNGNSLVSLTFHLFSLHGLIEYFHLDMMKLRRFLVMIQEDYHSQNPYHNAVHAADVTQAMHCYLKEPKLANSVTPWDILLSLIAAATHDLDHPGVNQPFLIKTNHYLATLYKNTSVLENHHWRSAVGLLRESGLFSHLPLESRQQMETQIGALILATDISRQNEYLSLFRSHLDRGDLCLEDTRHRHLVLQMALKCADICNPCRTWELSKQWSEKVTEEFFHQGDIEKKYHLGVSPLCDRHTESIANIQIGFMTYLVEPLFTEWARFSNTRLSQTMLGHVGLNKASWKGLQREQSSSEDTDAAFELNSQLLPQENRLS

Cc1nn(C2CCCCC2)c2sc(C(=O)Nc3ccc(N4CCN(C)CC4)cc3)cc12 [Example 107, 1-Cyclohexyl-3-methyl-N-[4-(4-methyl-1-piperazinyl)phenyl]-1H-thieno[2,3-c]pyrazole-5-carboxamide methanesulfonate] gave an IC50 ([1]; PDE 7 fraction from MOLT-4 cells, 0.064 μM cAMP, 10 μM rolipram, 2 hours at 25° C., methanesulfonate) of 17 nM and an IC50 ([2]; methanesulfonate) of 2000 nM.

Cc1nn(C2CCCCC2)c2sc(C(=O)Nc3ccc(N4CCN(C)CC4)nc3)cc12 [Example 109, 1-Cyclohexyl-3-methyl-N-[6-(4-methyl-1-piperazinyl)-3-pyridinyl]-1H-thieno[2,3-c]pyrazole-5-carboxamide di-HCl salt] showed an IC50 [1] of 15 nM and an IC50 [2] of 1000 nM.

In the case of Cc1nn(C2CCCCC2)c2sc(C(=O)Nc3cccc(S(=O)(=O)N4CCN(C)CC4)c3)cc12 [Example 110, 1-Cyclohexyl-3-methyl-N-{3-[(4-methyl-piperazinyl)sulfonyl]-phenyl}-1H-thieno[2,3-c]pyrazole-5-carboxamide HCl salt], the IC50 [1, 3] is reported as 75 nM and the IC50 [2] is reported as 5500 nM.

CNS(=O)(=O)c1cccc(NC(=O)c2cc3c(C)nn(C4CCCCC4)c3s2)c1 [Example 111, 1-Cyclohexyl-3-methyl-N-{3-[(methylamino)sulfonyl]phenyl}-1H-thieno[2,3-c]pyrazole-5-carboxamide] gave an IC50 [1, 3] of 10 nM and an IC50 [2] greater than 30000 nM.

With Cc1nn(C2CCCCCC2)c2sc(C(=O)Nc3ccc(N4CCN(C)CC4)cc3)cc12 [Example 112] the IC50 [1, 3] was 8 nM and the IC50 [2] was 1200 nM.

For COc1cc(NC(=O)c2cc3c(C)nn(C4CCCCCC4)c3s2)ccc1NC(C)=O [Example 115, N-[4-(Acetylamino)-3-methoxyphenyl]-1-cycloheptyl-3-methyl-1H-thieno[2,3-c]pyrazole-5-carboxamide], the IC50 [1, 3] was 40 nM and the IC50 [2] was 1500 nM.

Compound Cc1nn(C2CCCCC2)c2sc(C(=O)Nc3ccc(N(C)CCO)c(F)c3)cc12 [Example 125, 1-Cyclohexyl-N-{3-fluoro-4-[(2-hydroxyethyl)(methyl)amino]phenyl}-3-methyl-1H-thieno[2,3-c]pyrazole-5-carboxamide HCl salt] has an IC50 [1, 3] of 75 nM and an IC50 [2] of 4000 nM.

Compound Cc1nn(C2CCCCC2)c2sc(C(=O)NC3CCN(C4CCOCC4)CC3)cc12 [Example 135, 1-Cyclohexyl-3-methyl-N-(1-tetrahydro-2H-pyran-4-yl-4-piperidinyl)-1H-thieno[2,3-c]pyrazole-5-carboxamide] has an IC50 [1, 3] of 53 nM and an IC50 [2] of 7400 nM.

Cc1nn(C2CCCCC2)c2sc(C(=O)Nc3ccc(C4CCNCC4)cc3)cc12 [Example 141, 1-Cyclohexyl-3-methyl-N-[4-(4-piperidinyl)phenyl]-1H-thieno[2,3-c]pyrazole-5-carboxamide HCl salt] was tested, and the IC50 [1, 3] was 22 nM and the IC50 [2] was 1600 nM.

For Cc1nn(C2CCCCC2)c2sc(C(=O)Nc3ccc(C4CCN(C)CC4)cc3)cc12 [Example 142, 1-Cyclohexyl-3-methyl-N-[4(1-methyl-4-piperidinyl)phenyl]-1H-thieno[2,3-c]pyrazole-5-carboxamide], the IC50 [1, 3] was 14 nM and the IC50 [2] was 2000 nM.

COc1cc(NC(=O)c2cc3c(C)nn(C4CCCCC4)c3s2)ccc1C(=O)NCCO [Example 150, 1-Cyclohexyl-N-(4-{[(2-hydroxyethyl)amino]carbonyl}-3-methoxyphenyl)-3-methyl-1H-thieno[2,3-c]pyrazole-5-carboxamide] showed an IC50 [1, 3] of 45 nM and an IC50 [2] of 700 nM.

Compound CNC(=O)c1ccc(NC(=O)c2cc3c(C)nn(C4CCCCC4)c3s2)cc1OC [Example 152, 1-Cyclohexyl-N-{3-methoxy-4-[(methylamino)carbonyl]phenyl}-3-methyl-1H-thieno[2,3-c]pyrazole-5-carboxamide] has an IC50 [1, 3] of 85 nM and an IC50 [2] of 3000 nM.

With Cc1nn(C2CCCCC2)c2sc(C(=O)Nc3ccc(N4CCN(C)CC4)c(F)c3)cc12 [Example 155, 1-Cyclohexyl-N-[3-fluoro-4-(4-methyl-1-piperazinyl)phenyl]-3-methyl-1H-thieno[2,3-c]pyrazole-5-carboxamide methanesulfonic acid salt] the IC50 [1, 3] was 10 nM and the IC50 [2] was 1500 nM.
